The source of these data is ChEMBL document CHEMBL1268977, “Efficient synthesis, spectral analysis and antimicrobial studies of nitrogen and sulfur containing spiro heterocycles from 2,4-diaryl-3-azabicyclo[3.3.1]nonan-9-ones” (2010).

One experiment relates to Cryptococcus neoformans. The experiment can be described thus: Antifungal activity against Cryptococcus neoformans ATCC 3235 after 72 to 96 hrs by serial dilution method. Type of experiment: functional.
The next experiment has as its system Staphylococcus aureus. The experiment can be described thus: Antibacterial activity against Staphylococcus aureus ATCC 25930 after 24 hrs by serial dilution method. To be noted: ATCC 25930, 24 h. It is filed as functional.
For another experiment, the system named is Rhizopus. The experiment can be described thus: Antifungal activity against Rhizopus species ATCC 2842 after 72 to 96 hrs by serial dilution method. It is filed as functional.
Another experiment has as its system Klebsiella pneumoniae. The experiment can be described thus: Antibacterial activity against Klebsiella pneumoniae ATCC 16425 after 24 hrs by serial dilution method. Type of experiment: functional. To be noted: ATCC 16425, 24 h.
A further experiment deals with Aspergillus flavus. Briefly: Antifungal activity against Aspergillus flavus ATCC 525 after 72 to 96 hrs by serial dilution method. It is filed as functional.
In the next experiment the test system is Candida albicans. Briefly: Antifungal activity against Candida albicans ATCC 3430 after 72 to 96 hrs by serial dilution method. Type of experiment: functional.
The test system of experiment [1] is Bacillus subtilis. The experiment can be described thus: Antibacterial activity against Bacillus subtilis ATCC 530 after 24 hrs by serial dilution method. Type of experiment: functional. The note with it: ATCC 530, 24 h.
A further experiment deals with Escherichia coli. Briefly: Antibacterial activity against Escherichia coli ATCC 26032 after 24 hrs by serial dilution method. Type of experiment: functional. The note with it: ATCC 26032, 24 h.
Another experiment concerns Salmonella typhi. The experiment can be described thus: Antibacterial activity against Salmonella typhi ATCC 25021 after 24 hrs by serial dilution method. It is filed as functional, Salmonella enterica subsp. enterica serovar Typhi. To be noted: Salmonella enterica, ATCC 25021, 24 h.
For another experiment, the system named is Aspergillus niger. The experiment can be described thus: Antifungal activity against Aspergillus niger ATCC 635 after 72 to 96 hrs by serial dilution method. Type of experiment: functional.
Experiment [2] concerns Bacillus subtilis. The experiment can be described thus: Antibacterial activity against Bacillus subtilis ATCC 530 at 200 ug/ml after 24 hrs by serial dilution method. Type of experiment: functional, organism-based.

Values after ≈ are worked out from the molar mass of the structure shown. Active and inactive are the calls of the source. The calls are words filed in the database; no cut-off is given here.

As a reminder, the MIC is the lowest concentration that inhibits growth of the organism. The low end stands for greater potency, the high end for weaker potency. Turning to `CCC(=O)NC1=NN(C(=O)CC)C2(S1)C1CCCC2C(c2ccccc2)N(C(=O)CC)C1c1ccccc1` (stereo not given), the MIC with Cryptococcus neoformans was found to be 6.25 µg/mL (≈ 11.7 µM); against Staphylococcus aureus, 12.5 µg/mL (≈ 23.5 µM); against Rhizopus it was 12.5 µg/mL (≈ 23.5 µM); with Klebsiella pneumoniae it was 50 µg/mL (≈ 93.9 µM); in the experiment with Aspergillus flavus, 12.5 µg/mL (≈ 23.5 µM); against Candida albicans, 50 µg/mL (≈ 93.9 µM). Further, the MIC with Bacillus subtilis [1] stood at 50 µg/mL (≈ 93.9 µM); against Escherichia coli it was 50 µg/mL (≈ 93.9 µM); against Salmonella typhi, 25 µg/mL (≈ 46.9 µM); against Aspergillus niger, 50 µg/mL (≈ 93.9 µM).
Consider `CC(=O)NC1=NN(C(C)=O)C2(S1)C1CCCC2C(c2ccc(F)cc2)NC1c1ccc(F)cc1` (stereo not given), for which the minimal inhibitory concentration (MIC) was 12.5 µg/mL (≈ 25.8 µM) in the experiment on Cryptococcus neoformans; 50 µg/mL (≈ 103 µM) against Staphylococcus aureus; 50 µg/mL (≈ 103 µM) with Rhizopus; 12.5 µg/mL (≈ 25.8 µM) with Klebsiella pneumoniae; 6.25 µg/mL (≈ 12.9 µM) in the experiment on Aspergillus flavus; 6.25 µg/mL (≈ 12.9 µM) against Candida albicans. Also, the MIC against Bacillus subtilis [1] stood at 6.25 µg/mL (≈ 12.9 µM); against Escherichia coli, 12.5 µg/mL (≈ 25.8 µM); against Salmonella typhi, 6.25 µg/mL (≈ 12.9 µM); in the experiment on Aspergillus niger it was 6.25 µg/mL (≈ 12.9 µM).
As for `CCC(=O)NC1=NN(C(=O)CC)C2(S1)C1CCCC2C(c2ccc(F)cc2)NC1c1ccc(F)cc1` (stereo not given), the MIC against Cryptococcus neoformans amounted to 25 µg/mL (≈ 48.8 µM); with Staphylococcus aureus it was 25 µg/mL (≈ 48.8 µM); against Rhizopus, 6.25 µg/mL (≈ 12.2 µM); against Klebsiella pneumoniae it was 25 µg/mL (≈ 48.8 µM); against Aspergillus flavus, 6.25 µg/mL (≈ 12.2 µM); with Candida albicans, 6.25 µg/mL (≈ 12.2 µM). Moreover, the MIC in the experiment with Bacillus subtilis [1] worked out at 6.25 µg/mL (≈ 12.2 µM); with Escherichia coli, 12.5 µg/mL (≈ 24.4 µM); against Salmonella typhi it was 6.25 µg/mL (≈ 12.2 µM); against Aspergillus niger, 12.5 µg/mL (≈ 24.4 µM).
Take `C[C@@H]1[C@H](O)[C@@H](C)/C=C/C=C/C=C/C=C/C=C/C=C/C=C/[C@H](O[C@@H]2O[C@H](C)[C@@H](O)[C@H](N)[C@@H]2O)C[C@@H]2O[C@](O)(C[C@@H](O)C[C@@H](O)[C@H](O)CC[C@@H](O)C[C@@H](O)CC(=O)O[C@H]1C)C[C@H](O)[C@H]2C(=O)O` [AMPHOTERICIN B]: the MIC in the experiment on Cryptococcus neoformans was determined as 25 µg/mL (≈ 27.1 µM); with Rhizopus it was 25 µg/mL (≈ 27.1 µM); with Aspergillus flavus, 50 µg/mL (≈ 54.1 µM); against Candida albicans it was 25 µg/mL (≈ 27.1 µM); with Aspergillus niger, 50 µg/mL (≈ 54.1 µM).
Consider `CC(=O)NC1=NN(C(C)=O)C2(S1)C1CCCC2C(c2ccc(Cl)cc2)NC1c1ccc(Cl)cc1` (stereo not given), for which the inhibition entry with Bacillus subtilis [2] was “inactive”. Moreover, the minimal inhibitory concentration (MIC) against Cryptococcus neoformans was found to be 6.25 µg/mL (≈ 12.1 µM); in the experiment with Staphylococcus aureus it was 25 µg/mL (≈ 48.3 µM); in the experiment with Rhizopus, 200 µg/mL (≈ 386 µM); with Klebsiella pneumoniae, 50 µg/mL (≈ 96.6 µM); with Aspergillus flavus it was 50 µg/mL (≈ 96.6 µM); with Candida albicans it was 25 µg/mL (≈ 48.3 µM). The results for the MIC in the experiment with Escherichia coli, in the experiment with Salmonella typhi and against Aspergillus niger were 12.5 µg/mL (≈ 24.2 µM), 25 µg/mL (≈ 48.3 µM) and 25 µg/mL (≈ 48.3 µM), respectively.
Consider `CCC(=O)NC1=NN(C(=O)CC)C2(S1)C1CCCC2C(c2cccc(F)c2)NC1c1cccc(F)c1` (stereo not given), for which the MIC with Cryptococcus neoformans is 25 µg/mL (≈ 48.8 µM); with Staphylococcus aureus it was 100 µg/mL (≈ 195 µM); in the experiment on Rhizopus, 25 µg/mL (≈ 48.8 µM); in the experiment with Klebsiella pneumoniae it was 50 µg/mL (≈ 97.5 µM); against Aspergillus flavus it was 50 µg/mL (≈ 97.5 µM); in the experiment with Candida albicans, 25 µg/mL (≈ 48.8 µM). Besides, the minimum inhibitory concentration (MIC) with Bacillus subtilis [1] came out at 6.25 µg/mL (≈ 12.2 µM); with Escherichia coli it was 6.25 µg/mL (≈ 12.2 µM); with Salmonella typhi it was 6.25 µg/mL (≈ 12.2 µM); in the experiment on Aspergillus niger, 12.5 µg/mL (≈ 24.4 µM).
In the case of `CC(=O)NC1=NN(C(C)=O)C2(S1)C1CCCC2C(c2ccccc2)N(C(C)=O)C1c1ccccc1` (stereo not given), the MIC is 50 µg/mL (≈ 102 µM) with Cryptococcus neoformans; 12.5 µg/mL (≈ 25.5 µM) against Staphylococcus aureus; 50 µg/mL (≈ 102 µM) with Rhizopus; 100 µg/mL (≈ 204 µM) in the experiment on Klebsiella pneumoniae; 100 µg/mL (≈ 204 µM) with Aspergillus flavus; 100 µg/mL (≈ 204 µM) in the experiment with Candida albicans. In addition, the minimum inhibitory concentration (MIC) in the experiment with Bacillus subtilis [1] was 100 µg/mL (≈ 204 µM); against Escherichia coli, 50 µg/mL (≈ 102 µM); in the experiment with Salmonella typhi it was 25 µg/mL (≈ 51 µM); against Aspergillus niger, 25 µg/mL (≈ 51 µM).
With `CCC(=O)NC1=NN(C(=O)CC)C2(S1)C1CCCC2C(c2ccccc2Cl)NC1c1ccccc1Cl` (stereo not given), the MIC amounted to 50 µg/mL (≈ 91.7 µM) with Cryptococcus neoformans; 50 µg/mL (≈ 91.7 µM) in the experiment with Staphylococcus aureus; 100 µg/mL (≈ 183 µM) against Rhizopus; 25 µg/mL (≈ 45.8 µM) in the experiment with Klebsiella pneumoniae; 50 µg/mL (≈ 91.7 µM) against Aspergillus flavus; 12.5 µg/mL (≈ 22.9 µM) with Candida albicans. Further, the minimal inhibitory concentration (MIC) in the experiment on Bacillus subtilis [1] was determined as 12.5 µg/mL (≈ 22.9 µM); with Escherichia coli, 50 µg/mL (≈ 91.7 µM); in the experiment with Salmonella typhi, 25 µg/mL (≈ 45.8 µM); in the experiment with Aspergillus niger, 12.5 µg/mL (≈ 22.9 µM).
Turning to `CC(=O)N(C1=NN(C(C)=O)C2(S1)C1CCCC2C(c2ccccc2Cl)NC1c1ccccc1Cl)c1ccccc1` (stereo not given), the minimal inhibitory concentration (MIC) came to 50 µg/mL (≈ 84.2 µM) in the experiment with Cryptococcus neoformans; 25 µg/mL (≈ 42.1 µM) against Staphylococcus aureus; 25 µg/mL (≈ 42.1 µM) in the experiment on Rhizopus; 100 µg/mL (≈ 168 µM) against Klebsiella pneumoniae; 100 µg/mL (≈ 168 µM) in the experiment on Aspergillus flavus; 6.25 µg/mL (≈ 10.5 µM) in the experiment on Candida albicans. In addition, the MIC in the experiment with Bacillus subtilis [1] is 12.5 µg/mL (≈ 21.1 µM); in the experiment on Escherichia coli, 50 µg/mL (≈ 84.2 µM); with Salmonella typhi, 100 µg/mL (≈ 168 µM); against Aspergillus niger, 12.5 µg/mL (≈ 21.1 µM).
For `CCC(=O)NC1=NN(C(=O)CC)C2(S1)C1CCCC2C(c2ccc(C)cc2)NC1c1ccc(C)cc1` (stereo not given), the minimum inhibitory concentration (MIC) worked out at 25 µg/mL (≈ 49.5 µM) against Cryptococcus neoformans; 50 µg/mL (≈ 99.1 µM) against Staphylococcus aureus; 50 µg/mL (≈ 99.1 µM) against Rhizopus; 25 µg/mL (≈ 49.5 µM) in the experiment on Klebsiella pneumoniae; 200 µg/mL (≈ 396 µM) against Aspergillus flavus; 25 µg/mL (≈ 49.5 µM) against Candida albicans. The MIC in the experiment with Bacillus subtilis [1] came to 100 µg/mL (≈ 198 µM); with Escherichia coli, 25 µg/mL (≈ 49.5 µM); in the experiment with Salmonella typhi it was 50 µg/mL (≈ 99.1 µM); in the experiment on Aspergillus niger, 100 µg/mL (≈ 198 µM).
